Patent US20250186463A1, “ABIRATERONE DECANOATE PRODRUGS AND USE IN THERAPY” (PROPELLA THERAPEUTICS, INC., priority 2022, published 2025)
Marks after values point to notes of the source that are not given here.

System: serum progesterone
Assay: Phase 1/2a study: serum progesterone
Assay type: in vivo, human
Experimental: This is a Phase 1/2a, Open-label, Multicenter Study of Intramuscular Abiraterone Decanoate Depot in Patients with Advanced Prostate Cancer.
Formulations and dosing regimen: The formulation used in the study (abiraterone decanoate for intramuscular [i.m.] injection) is a solution formulation of abiraterone decanoate at a concentration of 180 mg/mL and will be provided as a 10 mL vial containing 990 mg of abiraterone decanoate in 5.5 mL of solution. See further details of the formulations in Example 2 (for each milliliter: Abiraterone Decanoate, about 180 mg/mL; Benzyl Alcohol, about 100 mg/mL; Benzyl Benzoate, about 200 mg/mL; and Corn oil, q.s. to 1 mL). Abiraterone Decanoate will be administered as an i.m. injection every 84 days (±3 days). Dose escalation will proceed with a modified Fibonacci sequence. Based on emerging data, intermediate doses may be evaluated.
Study Design: This is a Phase 1/2a, Open-label, Multicenter Study of Intramuscular Abiraterone Decanoate Depot in Patients with Advanced Prostate Cancer. In Phase 1, all patients will receive i.m. Abiraterone Decanoate depot in 84-day treatment cycles combined with daily oral prednisone or dexamethasone. In Phase 2a, patients will be randomized 1:1 and treated with i.m. Abiraterone Decanoate depot in 84-day treatment cycles in combination with dexamethasone (Arm A) or abiraterone acetate daily+prednisone (Arm B). In both Phases, patients will undergo scheduled periodic assessments of serum testosterone levels. Participants may continue treatment until they meet any discontinuation criteria outlined in the protocol.
Pharmacodynamic Analysis: Determination of Prostate Specific Antigen (PSA), serum testosterone, dehydroepiandrosterone (DHEA), dehydroepiandrosterone sulfate (DHEA-S), androstenedione, dihydrotestosterone (DHT), progesterone, cortisol, adrenocorticotropic hormone (ACTH), corticosterone, 11-dexoycorticosterone (11-DOC) and 11-deoxycortisol.
Based on the available data, the recommended dose for Phase 2 is about 1260 mg abiraterone decanoate once every three months (12 weeks). All cohorts 1 and 2 in this clinical study were treated with prednisone, 5 mg orally once or twice daily; and all cohorts 3-5 were treated with dexamethasone, 0.5 mg orally once daily. The results shown herein for these cohorts should be understood accordingly.
See also Table 3B below. […] See also FIG. 11B for the absolute serum progesterone levels for cohorts 4 and 5, with the LLOQ being 1.59 nM. It should be noted that the maximum serum progesterone level observed for cohorts 1-3 is 2.5 nM. FIGS. 3F and 3G show the serum 11-deoxycorticosterone and corticosterone response in cohorts 3, 4, and 5, the trend is similar to that observed for progesterone levels above. See a summary shown in the Table 3C below for the first cycle.

SMILES: CCCCCCCCCC(=O)O[C@H]1CC[C@@]2(C)C(=CC[C@@H]3[C@@H]2CC[C@]2(C)C(c4cccnc4)=CC[C@@H]32)C1 [abiraterone decanoate]
- Progesterone Changes during cycle 1, Percent (%) (720 mg (N = 4), Day 14): −1%
- Progesterone Changes during cycle 1, Percent (%) (720 mg (N = 4), Day 28): −2%
- Progesterone Changes during cycle 1, Percent (%) (720 mg (N = 4), Day 56): 0%
- Progesterone Changes during cycle 1, Percent (%) (720 mg (N = 4), Day 84): 0%
- Progesterone Changes during cycle 1, Percent (%) (1,260 mg (N = 6), Day 14): 20%
- Progesterone Changes during cycle 1, Percent (%) (1,260 mg (N = 6), Day 28): 35%
- Progesterone Changes during cycle 1, Percent (%) (1,260 mg (N = 6), Day 56): 0%
- Progesterone Changes during cycle 1, Percent (%) (1,260 mg (N = 6), Day 84): 0%
- Progesterone Changes during cycle 1, Percent (%) (1,800 mg (N = 8), Day 14): 165%
- Progesterone Changes during cycle 1, Percent (%) (1,800 mg (N = 8), Day 28): 86%
- Progesterone Changes during cycle 1, Percent (%) (1,800 mg (N = 8), Day 56): 12%
- Progesterone Changes during cycle 1, Percent (%) (1,800 mg (N = 8), Day 84): 13%
- Serum Progesterone (% CFB) (Cohort 1, 180 mg i.m., Study Day 1 (baseline)): 0%
- Serum Progesterone (% CFB) (Cohort 1, 180 mg i.m., Study Day 14): 0%
- Serum Progesterone (% CFB) (Cohort 1, 180 mg i.m., Study Day 28): 8%
- Serum Progesterone (% CFB) (Cohort 1, 180 mg i.m., Study Day 56): 0%
- Serum Progesterone (% CFB) (Cohort 1, 180 mg i.m., Study Day 70): 0%
- Serum Progesterone (% CFB) (Cohort 2, 360 mg i.m., Study Day 1 (baseline)): 0%
- Serum Progesterone (% CFB) (Cohort 2, 360 mg i.m., Study Day 14): 37%
- Serum Progesterone (% CFB) (Cohort 2, 360 mg i.m., Study Day 28): 8%
- Serum Progesterone (% CFB) (Cohort 2, 360 mg i.m., Study Day 56): 0%
- Serum Progesterone (% CFB) (Cohort 2, 360 mg i.m., Study Day 84): 0%
- Serum Progesterone (% CFB) (Cohort 2, 360 mg i.m., Study Day 168): 0%
- Serum Progesterone (% CFB) (Cohort 2, 360 mg i.m., Study Day 252): 0%
- Serum Progesterone (% CFB) (Cohort 3, 720 mg i.m., Study Day 1 (baseline)): 0%
- Serum Progesterone (% CFB) (Cohort 3, 720 mg i.m., Study Day 14): −1%
- Serum Progesterone (% CFB) (Cohort 3, 720 mg i.m., Study Day 28): −2%
- Serum Progesterone (% CFB) (Cohort 3, 720 mg i.m., Study Day 56): 0%
- Serum Progesterone (% CFB) (Cohort 3, 720 mg i.m., Study Day 84): 0%
- Serum Progesterone (% CFB) (Cohort 3, 720 mg i.m., Study Day 168): 6%
- Serum Progesterone (% CFB) (Cohort 3, 720 mg i.m., Study Day 224): 0%
- Serum Progesterone (% CFB) (Cohort 3, 720 mg i.m., Study Day 252): 0%
- Serum Progesterone (% CFB) (Cohort 4, 1260 mg i.m., Study Day 1 (baseline)): 0%
- Serum Progesterone (% CFB) (Cohort 4, 1260 mg i.m., Study Day 14): 20%
- Serum Progesterone (% CFB) (Cohort 4, 1260 mg i.m., Study Day 28): 35%
- Serum Progesterone (% CFB) (Cohort 4, 1260 mg i.m., Study Day 42): 0%
- Serum Progesterone (% CFB) (Cohort 4, 1260 mg i.m., Study Day 56): 0%
- Serum Progesterone (% CFB) (Cohort 4, 1260 mg i.m., Study Day 70): 22%
- Serum Progesterone (% CFB) (Cohort 4, 1260 mg i.m., Study Day 84): 0%
- Serum Progesterone (% CFB) (Cohort 4, 1260 mg i.m., Study Day 112): 6%
- Serum Progesterone (% CFB) (Cohort 4, 1260 mg i.m., Study Day 140): 0%
- Serum Progesterone (% CFB) (Cohort 4, 1260 mg i.m., Study Day 168): 1%
- Serum Progesterone (% CFB) (Cohort 4, 1260 mg i.m., Study Day 224): 0%
- Serum Progesterone (% CFB) (Cohort 4, 1260 mg i.m., Study Day 252): 0%
- Serum Progesterone (% CFB) (Cohort 5, 1800 mg i.m., Study Day 1 (baseline)): 0%
- Serum Progesterone (% CFB) (Cohort 5, 1800 mg i.m., Study Day 14): 165%
- Serum Progesterone (% CFB) (Cohort 5, 1800 mg i.m., Study Day 28): 86%
- Serum Progesterone (% CFB) (Cohort 5, 1800 mg i.m., Study Day 42): 0%
- Serum Progesterone (% CFB) (Cohort 5, 1800 mg i.m., Study Day 56): 12%
- Serum Progesterone (% CFB) (Cohort 5, 1800 mg i.m., Study Day 70): 0%
- Serum Progesterone (% CFB) (Cohort 5, 1800 mg i.m., Study Day 84): 8%
- Serum Progesterone (% CFB) (Cohort 5, 1800 mg i.m., Study Day 140): 0%
- Serum Progesterone (% CFB) (Cohort 5, 1800 mg i.m., Study Day 168): −7%
- Serum Progesterone (% CFB) (Cohort 5, 1800 mg i.m., Study Day 196): 52%
- Serum Progesterone (% CFB) (Cohort 5, 1800 mg i.m., Study Day 224): −7%
- Serum Progesterone (% CFB) (Cohort 5, 1800 mg i.m., Study Day 252): 0%
- progesterone change from baseline (Patient 1, cohort 1, 180 mg, FIG. 5): no progesterone increase from baseline
- transient up stream steroid (progesterone) increase from baseline (Patient 2, cohort 2, 360 mg, FIG. 6): returned to baseline
- increases of progesterone levels during the second cycle (all cohorts): no significant increases
- progesterone changes from baseline (all cohorts (180-1800 mg)): not significant
- time at which progesterone level returned to baseline (cohort 5 (1800 mg), after first administration): ~6 week
- maximum serum progesterone level observed (cohorts 1-3 (180, 360, 720 mg)): 2.5 nM
- Progesterone at Visit Day (nM) (patient 02-1403, Cohort 4, 1260 mg, mCRPC, Visit C4D28, assay LLOQ = 1.59 nM): <LLOQ
- Progesterone at Visit Day (nM) (patient 02-1405, Cohort 4, 1260 mg, mCRPC, Visit C1D56, assay LLOQ = 1.59 nM): <LLOQ
- Progesterone at Visit Day (nM) (patient 02-1504, Cohort 5, 1800 mg, mCRPC, Visit C1D28, assay LLOQ = 1.59 nM): <LLOQ
- Progesterone at Visit Day (nM) (patient 04-1406, Cohort 4, 1260 mg, mCSPC, Visit C1D56, average of Day 28 and Day 70 values): 2.90† nM
- Progesterone at Visit Day (patient 04-1503, Cohort 5, 1800 mg, mCSPC, Visit C1D84, assay LLOQ = 1.59 nM): 2.54 nM
- Progesterone at Visit Day (nM) (patient 04-1506, Cohort 5, 1800 mg, mCRPC, Visit C1D28, assay LLOQ = 1.59 nM): <LLOQ
- Progesterone at Visit Day (nM) (patient 06-1401, Cohort 4, 1260 mg, mCRPC, Visit C3D84, assay LLOQ = 1.59 nM): <LLOQ
- Progesterone at Visit Day (nM) (patient 06-1402, Cohort 4, 1260 mg, mCRPC, Visit C4D28, assay LLOQ = 1.59 nM): <LLOQ
- Progesterone at Visit Day (nM) (patient 06-1404, Cohort 4, 1260 mg, mCSPC, Visit C2D84, assay LLOQ = 1.59 nM): <LLOQ
- Progesterone at Visit Day (nM) (patient 06-1501, Cohort 5, 1800 mg, mCRPC, Visit C1D84, assay LLOQ = 1.59 nM): <LLOQ
- Progesterone at Visit Day (nM) (patient 06-1502, Cohort 5, 1800 mg, mCSPC, Visit C2D84, assay LLOQ = 1.59 nM): <LLOQ
